Experimental data published in PMC4109385 (BMC Microbiology, 2014).

Target: ClpC (with MecA) (Streptococcus mutans, UniProt Q8DS14)
Details: 2 mM ATP, 5 mM MgCl2, 100 mM KCl, 25 mM Tris-HCl pH 8.0, 37 °C; 0.3 uM proteins; MecA present

Chain of ClpC (with MecA) (Q8DW33 whole entry): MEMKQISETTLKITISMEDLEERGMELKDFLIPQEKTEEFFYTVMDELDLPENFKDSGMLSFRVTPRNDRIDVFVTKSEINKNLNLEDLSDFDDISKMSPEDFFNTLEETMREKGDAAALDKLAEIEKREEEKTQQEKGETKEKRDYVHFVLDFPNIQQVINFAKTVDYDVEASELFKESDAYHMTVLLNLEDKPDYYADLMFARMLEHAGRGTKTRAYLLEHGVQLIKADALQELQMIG
Chain of ClpC (with MecA) (Q8DS14 entry or part of it): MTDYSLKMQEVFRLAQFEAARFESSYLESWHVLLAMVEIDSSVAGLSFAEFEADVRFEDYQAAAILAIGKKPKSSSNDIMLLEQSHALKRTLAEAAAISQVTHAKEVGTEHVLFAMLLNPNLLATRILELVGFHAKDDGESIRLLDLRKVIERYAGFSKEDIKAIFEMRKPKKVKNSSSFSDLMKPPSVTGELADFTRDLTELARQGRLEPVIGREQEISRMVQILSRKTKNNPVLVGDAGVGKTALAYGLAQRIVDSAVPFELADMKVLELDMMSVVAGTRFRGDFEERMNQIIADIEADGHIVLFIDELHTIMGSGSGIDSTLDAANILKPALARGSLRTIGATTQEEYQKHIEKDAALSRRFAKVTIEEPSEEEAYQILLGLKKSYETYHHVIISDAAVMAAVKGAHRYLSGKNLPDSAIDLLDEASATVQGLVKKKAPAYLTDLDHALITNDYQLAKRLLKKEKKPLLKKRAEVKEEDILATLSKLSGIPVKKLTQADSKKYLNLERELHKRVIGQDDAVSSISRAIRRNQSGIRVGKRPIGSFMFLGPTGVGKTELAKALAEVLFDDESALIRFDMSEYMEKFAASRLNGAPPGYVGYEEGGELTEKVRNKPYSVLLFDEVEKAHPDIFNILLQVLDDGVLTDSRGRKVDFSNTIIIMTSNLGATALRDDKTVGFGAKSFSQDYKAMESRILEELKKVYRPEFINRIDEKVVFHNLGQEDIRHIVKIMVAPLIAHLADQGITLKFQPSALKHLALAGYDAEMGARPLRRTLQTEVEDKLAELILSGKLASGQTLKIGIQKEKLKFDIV

Nc1ncnc2c1ncn2[C@@H]1O[C@H](COP(=O)(O)OP(=O)(O)OP(=O)(O)O)[C@@H](O)[C@H]1O [ATP]
malachite green ATPase assay (released orthophosphate): the presence of MecA increased the ATPase activity of ClpC (Figure 6A)
